Measurements published in patent US7906522B2, “2-aminoquinazoline derivatives” (Kyowa Hakko Kirin Co., Ltd, priority 2005, dated 2011).

Biological target: T1, Activated human p38α (Homo sapiens, UniProt Q16539)
T1 construct: purchased Upstate Biotechnology Inc. 14-251
Experiment: p38MAP kinase inhibition test
Assay type: biochemical
Conditions: at a concentration of 1 μmol/L; substrate myelin basic protein, ATP 20 μmol/L, [γ-32P]ATP; read-out: enzyme inhibitory activity
Summary of the method: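 Phosphorylation of myelin basic protein (20 μg/assay) by the kinase measured via [γ-32P]ATP incorporation at 20 μmol/L ATP, pH 7.2 MOPS buffer, 30° C. for 15 min. Labelled substrate bound to P81 paper, washed, and quantified by scintillation counting; compounds added in DMSO.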

T1 sequence (Q16539 whole entry): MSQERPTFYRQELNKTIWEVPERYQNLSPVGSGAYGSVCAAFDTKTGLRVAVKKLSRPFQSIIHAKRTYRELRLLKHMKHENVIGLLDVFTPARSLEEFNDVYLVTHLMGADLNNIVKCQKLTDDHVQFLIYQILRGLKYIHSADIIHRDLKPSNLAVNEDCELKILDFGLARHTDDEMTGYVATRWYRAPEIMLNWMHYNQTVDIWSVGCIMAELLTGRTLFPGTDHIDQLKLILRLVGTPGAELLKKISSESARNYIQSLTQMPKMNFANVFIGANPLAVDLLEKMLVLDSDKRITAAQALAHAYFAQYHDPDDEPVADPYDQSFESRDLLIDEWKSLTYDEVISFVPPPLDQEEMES

Structure (SMILES) | inhibition at 1 µM [%]
CS(=O)(=O)N1CCC(Nc2ncc3cc(-c4cccc(O)c4)ccc3n2)CC1 [Compound 276, 6-(3-Hydroxyphenyl)-2-[1-(methylsulfonyl)piperidin-4-ylamino]quinazoline] | ≥ 50
O=C(c1ccccc1)c1cc2cnc(NC3CCOCC3)nc2cc1O [Compound 138, 6-Benzoyl-7-hydroxy-2-(4-tetrahydropyranylamino)quinazoline] | ≥ 50
COc1cc2nc(NC(C)C)ncc2cc1C(=O)c1ccccc1 [Compound 109, 6-Benzoyl-2-isopropylamino-7-methoxyquinazoline] | ≥ 50
COc1cc2nc(Nc3c(F)cccc3F)ncc2cc1-c1ccccc1Cl [Compound 16, 6-(2-Chlorophenyl)-2-(2,6-difluoroanilino)-7-methoxyquinazoline] | ≥ 50
CCCS(=O)(=O)N1CCC(Nc2ncc3cc(-c4ccccc4Cl)c(O)cc3n2)CC1 [Compound 162, 6-(2-Chlorophenyl)-7-hydroxy-2-[1-(1-propylsulfonyl)piperidin-4-ylamino]quinazoline] | ≥ 50
NC(=O)N1CCC(Nc2ncc3cc(-c4ccccc4Cl)c(O)cc3n2)CC1 [Compound 157, 2-(1-Carbamoylpiperidin-4-ylamino)-6-(2-chlorophenyl)-7-hydroxyquinazoline] | ≥ 50
COc1cc2nc(N[C@H](C)C(C)(C)O)ncc2cc1-c1ccccc1Cl [Compound 7, (R)-6-(2-Chlorophenyl)-2-(2-hydroxy-1,2-dimethylpropylamino)-7-methoxyquinazoline] | ≥ 50
CC(C)Nc1ncc2cc(-c3ccccc3Cl)c(OCCCCO)cc2n1 [Compound 25, 6-(2-Chlorophenyl)-7-(4-hydroxybutyloxy)-2-isopropylaminoquinazoline] | ≥ 50
COc1cc2nc(NC(C)C)ncc2cc1-c1cccc(OC(C)=O)c1 [Compound 202, 6-(3-Acetoxyphenyl)-2-isopropylamino-7-methoxyquinazoline] | ≥ 50
CC(C)Nc1ncc2cc(C(=O)c3ccc(F)cc3)c(O)cc2n1 [Compound 131, 6-(4-Fluorobenzoyl)-7-hydroxy-2-(isopropylamino)quinazoline] | ≥ 50
CC(C)Nc1ncc2cc(-c3ccccc3Cl)c(OCC(=O)N(C)C)cc2n1 [Compound 37, 6-(2-Chlorophenyl)-7-(N,N-dimethylcarbamoylmethyloxy)-2-isopropylaminoquinazoline] | ≥ 50
Cc1ccccc1-c1cc2cnc(Nc3c(C)cccc3C(C)C)nc2cc1O [Compound 177, 7-Hydroxy-2-(2-isopropyl-6-methylanilino)-6-(2-methylphenyl)quinazoline] | ≥ 50
CCCOC(=O)c1c(OC)c(-c2ccccc2Cl)cc2cnc(NC(C)C)nc12 [Compound 62, 6-(2-Chlorophenyl)-2-isopropylamino-7-methoxy-8-(propoxycarbonyl)quinazoline] | ≥ 50
COc1ccccc1-c1cc2cnc(NC(C)C)nc2cc1OC [Compound 193, 2-Isopropylamino-7-methoxy-6-(2-methoxyphenyl)quinazoline] | ≥ 50
COc1c(-c2ccc(F)cc2F)cc2cnc(NC(C)C)nc2c1Br [Compound 82, 8-Bromo-6-(2,4-difluorophenyl)-2-isopropylamino-7-methoxyquinazoline] | ≥ 50
CC[C@@H](C)Nc1ncc2cc(-c3ccccc3C)c(OC)cc2n1 [Compound 166, (R)-2-(sec-Butylamino)-7-methoxy-6-(2-methylphenyl)quinazoline] | ≥ 50
CC(C)Nc1ncc2cc(-c3ccccc3Cl)c(O)c(-c3ccccn3)c2n1 [Compound 87, 6-(2-Chlorophenyl)-2-isopropylamino-7-hydroxy-8-(2-pyridyl)quinazoline] | ≥ 50

Continued, values first:

inhibition at 1 µM [%] | Structure (SMILES)
≥ 50 | CC(=O)Nc1ccc(C)c(-c2cc3cnc(NC(C)C)nc3cc2O)c1 [Compound 289, 6-(5-Acetylamino-2-methylphenyl)-7-hydroxy-2-(isopropylamino)quinazoline]
≥ 50 | COc1cc2nc(NC(C)C)ncc2cc1C(=O)c1cccc(C)c1 [Compound 114, 2-Isopropylamino-7-methoxy-6-(3-methylbenzoyl)quinazoline]
≥ 50 | Cc1cc2nc(NC(C)C)ncc2cc1-c1cccc(NC(=O)c2ccnc(N3CCOCC3)c2)c1 [Compound 279, 2-Isopropylamino-7-methyl-6-{3-[(2-morpholinopyridin-4-yl)carbonylamino]phenyl}quinazoline]
≥ 50 | COc1cc2nc(NC(C)C)ncc2cc1-c1cccc(NC(=O)c2ccc(OC(F)(F)F)cc2)c1 [Compound 214, 2-Isopropylamino-7-methoxy-6-{3-[(4-trifluoromethoxyphenyl)carbonylamino]phenyl}quinazoline]
≥ 50 | Cc1ccc(NC(=O)c2ccncc2)cc1-c1ccc2nc(NC(C)C)ncc2c1 [Compound 259, 2-Isopropylamino-6-{2-methyl-5-[(4-pyridyl)carbonylamino]phenyl}quinazoline]
≥ 50 | CC(C)Nc1ncc2cc(-c3ccccc3Cl)c(OCC(=O)N3CCCCC3)cc2n1 [Compound 38, 6-(2-Chlorophenyl)-2-isopropylamino-7-[(piperidinocarbonyl)methyloxy]quinazoline]
≥ 50 | COc1cc2nc(NC(C)C)ncc2cc1-c1cccc(NC(=O)c2ccnc(N3CCOCC3)c2)c1 [Compound 53, 2-Isopropylamino-7-methoxy-6-{3-[(2-morpholinopyridin-4-yl)carbonylamino]phenyl}quinazoline]
≥ 50 | CC(=O)Nc1cccc(-c2ccc3nc(NC4CCN(S(C)(=O)=O)CC4)ncc3c2)c1 [Compound 274, 6-[3-(Acetylamino)phenyl]-2-[1-(methylsulfonyl)piperidin-4-ylamino]quinazoline]
≥ 50 | CC(C)Nc1ncc2cc(-c3ccccc3Cl)c(OCc3ccc(C(=O)O)cc3)cc2n1 [Compound 28, 7-(4-Carboxyphenylmethyloxy)-6-(2-chlorophenyl)-2-isopropylaminoquinazoline]
≥ 50 | COCOc1c(-c2ccccc2Cl)cc2cnc(NC(C)C)nc2c1-c1cccc(C(=O)O)c1 [Compound 93, 8-(3-Carboxyphenyl)-6-(2-chlorophenyl)-2-isopropylamino-7-(methoxymethyloxy)quinazoline]
≥ 50 | CC(C)Nc1ncc2cc(C(=O)c3cccc(O)c3)c(O)cc2n1 [Compound 123, 7-Hydroxy-6-(3-hydroxybenzoyl)-2-(isopropylamino)quinazoline]
≥ 50 | COc1cc2nc(NC(C)C)ncc2cc1-c1cc(NC(C)=O)ccc1CO [Compound 225, 6-[5-Acetylamino-2-(hydroxymethyl)phenyl]-2-isopropylamino-7-methoxyquinazoline]
≥ 50 | COc1cc2nc(NC(C)C)ncc2cc1-c1cccc(NC(=O)c2cccnc2)c1 [Compound 221, 2-Isopropylamino-7-methoxy-6-{3-[(3-pyridyl)carbonylamino]phenyl}quinazoline]
≥ 50 | Cc1ccccc1C(=O)c1cc2cnc(NC(C)C)nc2cc1O [Compound 119, 7-Hydroxy-2-isopropylamino-6-(2-methylbenzoyl)quinazoline]
≥ 50 | CCC(=O)Nc1cccc(-c2cc3cnc(NC(C)C)nc3cc2O)c1 [Compound 297, 7-Hydroxy-2-isopropylamino-6-[3-(propionylamino)phenyl]quinazoline]
≥ 50 | Cc1cccc(C)c1Nc1ncc2cc(-c3cccc(NC(=O)c4cccc(N(C)C)c4)c3)c(O)cc2n1 [Compound 314, 6-{3-[(3-Dimethylaminophenyl)carbonylamino]phenyl}-2-(2,6-dimethylanilino)-7-hydroxyquinazoline]
≥ 50 | CC(=O)Nc1ccc(C)c(-c2ccc3nc(NC(C)C)ncc3c2)c1 [Compound 254, 6-(5-Acetylamino-2-methylphenyl)-2-(isopropylamino)quinazoline]
≥ 50 | COc1cc2nc(NC(C)C)ncc2cc1-c1ccccc1C [Compound 191, 2-Isopropylamino-7-methoxy-6-(2-methylphenyl)quinazoline]
≥ 50 | COc1cc2nc(NC(C)C)ncc2cc1-c1cc(NC(=O)c2ccc[nH]2)ccc1C [Compound 232, 2-Isopropylamino-7-methoxy-6-{2-methyl-5-[(1H-pyrrol-2-yl)carbonylamino]phenyl}quinazoline]
≥ 50 | COc1cccc(-c2cc3cnc(NC(C)C)nc3cc2OC)c1 [Compound 201, 2-Isopropylamino-7-methoxy-6-(3-methoxyphenyl)quinazoline]
≥ 50 | Cc1cc2nc(NC(C)C)ncc2cc1-c1cc(NC(=O)c2ccc[nH]2)ccc1CO [Compound 281, 6-{2-Hydroxymethyl-5-[(1H-pyrrol-2-yl)carbonylamino]phenyl}-2-isopropylamino-7-methylquinazoline]
≥ 50 | COc1cc2nc(NC(C)C)ncc2cc1-c1cc(NC(=O)c2ccc[nH]2)ccc1O [Compound 252, 6-{2-Hydroxy-5-[(1H-pyrrol-2-yl)carbonylamino]phenyl}-2-isopropylamino-7-methoxyquinazoline]
≥ 50 | COc1cc2nc(NC(C)C)ncc2cc1-c1cccc(O)c1 [Compound 196, 6-(3-Hydroxyphenyl)-2-isopropylamino-7-methoxyquinazoline]
≥ 50 | CC(=O)Nc1ccc(CO)c(-c2cc3cnc(NC(C)C)nc3cc2C)c1 [Compound 280, 6-[(5-Acetylamino-2-hydroxymethyl)phenyl]-2-isopropylamino-7-methylquinazoline]
≥ 50 | COc1cc2nc(NC(C)C)ncc2cc1-c1ccccc1 [Compound 44, 2-Isopropylamino-7-methoxy-6-phenylquinazoline]
